Laboratory results published in patent publication US5811425A, “Heterocyclic compounds as COX-2 inhibitors” (Abbott Laboratories, priority 1997, dated 1998).
Structures can show the parent of a compound that is named as a salt.

Assays:
[1] = biological target: T1, recombinant human PGHS-2 (COX-2) (Homo sapiens, UniProt P35354); test: Recombinant human PGHS-2 enzyme assay (PGE2 production by EIA); type: biochemical; settings: 60 min preincubation, 10 uM arachidonic acid; for inhibition at 0.1 µM: 100 nM compound
T1 construct: made in house; host or cells: baculovirus/Sf9 insect cells (microsomes)
T1 sequence (P35354 18-604): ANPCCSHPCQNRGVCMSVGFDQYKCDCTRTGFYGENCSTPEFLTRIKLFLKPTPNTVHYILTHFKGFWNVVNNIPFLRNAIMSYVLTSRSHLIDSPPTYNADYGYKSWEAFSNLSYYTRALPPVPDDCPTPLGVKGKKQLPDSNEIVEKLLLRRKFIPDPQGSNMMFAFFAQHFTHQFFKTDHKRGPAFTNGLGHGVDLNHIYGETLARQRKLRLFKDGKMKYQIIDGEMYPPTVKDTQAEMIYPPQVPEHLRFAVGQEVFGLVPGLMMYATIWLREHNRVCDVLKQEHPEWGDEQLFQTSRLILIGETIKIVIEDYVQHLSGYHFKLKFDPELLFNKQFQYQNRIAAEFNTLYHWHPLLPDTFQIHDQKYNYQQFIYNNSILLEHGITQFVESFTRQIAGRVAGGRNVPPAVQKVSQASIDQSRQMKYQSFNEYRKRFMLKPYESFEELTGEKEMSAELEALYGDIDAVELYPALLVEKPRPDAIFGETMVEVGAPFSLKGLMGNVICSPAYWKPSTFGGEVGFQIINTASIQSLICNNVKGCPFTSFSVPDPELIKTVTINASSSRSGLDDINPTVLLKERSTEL
Experimental: Recombinant Human PGHS-l and -2 Enzyme Assays: A compound of the invention was dissolved in DMSO (3.3%v/v) and preincubated with microsomes from recombinant human PGHS-1 and-2 expressed in the baculovirus/Sf9 cell system (Gierse, J. […] The reaction was allowed to run for 2.5 minutes at room temperature prior to quenching with HCl and neutralization with NaOH. PGE2 production in the presence and absence of the drug was determined by Enzyme ImmunoAssay ("EIA") analysis as described below. EIA Determination of Prostaglandins EIA reagents for prostaglandin determination were purchased from Perspective Diagnostics, Cambridge, Mass. PGE2 levels in lavage fluids were determined after the samples were dried under nitrogen and reconstituted with assay buffer. PGE2 levels in enzyme assays or cell culture media were measured against standards prepared in the same milieu. The immunoassays were conducted as recommended by the manufacturer. The EIA was conducted in 96 well microtiter plates (Nunc Roskilde, Denmark) and optical density measured using a microplate reader (Vmax, Molecular Devices Corp., Menlo Park, Calif.).

[2] = tested on: carragennan induced pleurisy; test: Carragennan Induced Pleurisy Test (CIP); type: in vivo, Sprague-Dawley rats; settings: Rattus norvegicus; rats, oral 10 mg/kg, 30 min before carrageenan; prostaglandin in pleural lavage at 4 h
Experimental: (§1) EIA Determination of Prostaglandins
(§2) EIA reagents for prostaglandin determination were purchased from Perspective Diagnostics, Cambridge, Mass. PGE2 levels in lavage fluids were determined after the samples were dried under nitrogen and reconstituted with assay buffer. PGE2 levels in enzyme assays or cell culture media were measured against standards prepared in the same milieu. The immunoassays were conducted as recommended by the manufacturer. The EIA was conducted in 96 well microtiter plates (Nunc Roskilde, Denmark) and optical density measured using a microplate reader (Vmax, Molecular Devices Corp., Menlo Park, Calif.).
Carragennan Induced Pleurisy Test (CIP)
Four hours after carrageenan injection, the animals were euthanized and their pleural cavities lavaged with ice cold saline. […] Prostaglandin levels in the methanol lavage fluid were then determined by EIA.

[3] = biological target: T2, recombinant human PGHS-1 (COX-1) (Homo sapiens, UniProt P23219); test: Recombinant human PGHS-1 enzyme assay (PGE2 production by EIA); type: biochemical; settings: 100 uM compound; 60 min preincubation; 10 uM arachidonic acid; read-out: COX-1 (% inhib. @ 100 uM)
T2 construct: made in house; host or cells: baculovirus/Sf9 insect cells (microsomes)
T2 sequence (P23219 24-599): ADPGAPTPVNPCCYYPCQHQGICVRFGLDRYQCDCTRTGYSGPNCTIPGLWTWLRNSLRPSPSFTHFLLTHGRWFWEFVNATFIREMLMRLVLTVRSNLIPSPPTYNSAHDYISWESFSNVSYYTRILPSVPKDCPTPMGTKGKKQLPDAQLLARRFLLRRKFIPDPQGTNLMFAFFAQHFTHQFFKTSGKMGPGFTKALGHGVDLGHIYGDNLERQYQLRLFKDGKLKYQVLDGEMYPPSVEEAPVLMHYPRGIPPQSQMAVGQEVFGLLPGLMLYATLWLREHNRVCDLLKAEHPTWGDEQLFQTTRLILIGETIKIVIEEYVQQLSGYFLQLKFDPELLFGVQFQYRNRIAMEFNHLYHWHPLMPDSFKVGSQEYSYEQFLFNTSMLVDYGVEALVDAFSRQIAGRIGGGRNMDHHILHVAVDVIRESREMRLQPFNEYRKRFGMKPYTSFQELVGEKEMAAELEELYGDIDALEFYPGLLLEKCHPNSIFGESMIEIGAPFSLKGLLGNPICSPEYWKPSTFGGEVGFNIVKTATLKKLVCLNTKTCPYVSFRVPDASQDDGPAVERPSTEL
Experimental: Recombinant Human PGHS-l and -2 Enzyme Assays:
The reaction was allowed to run for 2.5 minutes at room temperature prior to quenching with HCl and neutralization with NaOH. PGE2 production in the presence and absence of the drug was determined by Enzyme ImmunoAssay ("EIA") analysis as described below.
as §1, §2

Compound: COc1ccc2c(c1)c(Cc1nc(-c3ccc(Cl)cc3)cs1)c(C)n2Cc1ccc(Br)cc1 [Example 14, 1-(4-bromobenzyl)-3-[4-(4-Chlorophenyl)thiazol-2-ylmethyl]-5-methoxy-2-methylindole]
- IC50 [1]: 7 nM
- inhibition in vivo at 10 mg/kg [2]: 36%
- inhibition at 100 µM [3]: 15%

Compound: COc1ccc2c(c1)c(Cc1nc(-c3ccc(F)cc3)cs1)c(C)n2C(=O)c1ccc(Cl)cc1 [Example 8, 1-(4-Chlorobenzoyl)-3-[4-(4-fluorophenyl)thiazol-2-ylmethyl]-5-methoxy-2-methylindole]
- IC50 [1]: 12 nM
- inhibition at 100 µM [3]: 36%

Compound: COc1ccc2c(c1)c(Cc1nc(-c3ccc4ccccc4c3)cs1)c(C)n2C(=O)c1ccc(Cl)cc1 [Example 3, 1-(4-Chlorobenzoyl)-5-methoxy-2-methyl-3-[4-(2-naphthyl)thiazol-2-ylmethyl]indole]
- IC50 [1]: 7 nM
- inhibition at 100 µM [3]: 21%

Compound: COc1ccc2c(c1)c(Cc1nc(-c3ccc(Br)cc3)cs1)c(C)n2Cc1ccc(Br)cc1 [Example 15, 1-(4-bromobenzyl)-3-[4-(4-bromophenyl)thiazol-2-ylmethyl]-5-methoxy-2-methylindole]
- IC50 [1]: 30 nM
- inhibition at 100 µM [3]: 15%

Compound: COc1ccc2c(c1)c(Cc1nc(-c3cccc([N+](=O)[O-])c3)cs1)c(C)n2C(=O)c1ccc(Cl)cc1 [Example 10, 1-(4-Chlorobenzoyl)-5-methoxy-2-methyl-3-[4-(3-nitrophenyl)thiazol-2-ylmethyl]indole]
- inhibition at 0.1 µM [1]: 85%
- inhibition at 100 µM [3]: 31%

Compound: COc1ccc2c(c1)c(Cc1csc(-c3ccncc3)n1)c(C)n2C(=O)c1ccc(Cl)cc1 [Example 13, 1-(4-Chlorobenzoyl)-5-methoxy-2-methyl-3-[2-(4-pyridyl)thiazol-4-ylmethyl]indole]
- inhibition at 0.1 µM [1]: 77%
- inhibition in vivo at 10 mg/kg [2]: 14%
- inhibition at 100 µM [3]: 49%

Compound: COc1ccc2c(c1)c(Cc1nc(-c3csc4ccccc34)cs1)c(C)n2C(=O)c1ccc(Cl)cc1 [Example 7, 3-[4-(3-benzothienyl)thiazol-2-ylmethyl]-1-(4-Chlorobenzoyl)-5-methoxy-2-methylindole]
- IC50 [1]: 1 nM
- inhibition in vivo at 10 mg/kg [2]: 20%
- inhibition at 100 µM [3]: 23%

Compound: COc1ccc2c(c1)c(Cc1nc(-c3ccc(S(C)(=O)=O)cc3)cs1)c(C)n2C(=O)c1ccc(Cl)cc1 [Example 9, 1-(4-Chlorobenzoyl)-3-[4-(4-methanesulfonylphenyl)thiazol-2-ylmethyl]-5-methoxy-2-methylindole hydrobromide salt]
- IC50 [1]: 60 nM
- inhibition at 100 µM [3]: 40%

Compound: COc1ccc2c(c1)c(Cc1nc(-c3ccc(Cl)cc3)cs1)c(C)n2C(=O)c1ccc(Cl)cc1 [Example 5, 1-(4-Chlorobenzoyl)-3-[4-(4-Chlorophenyl)thiazol-2-ylmethyl]-5-methoxy-2-methylindole]
- IC50 [1]: 14 nM
- inhibition at 100 µM [3]: 16%

Compound: COc1ccc2c(c1)c(Cc1nc(-c3cccc(Br)c3)cs1)c(C)n2C(=O)c1ccc(Cl)cc1 [Example 4, 3-[4-(3-bromophenyl)thiazol-2-ylmethyl]-1-(4-Chlorobenzoyl)-5-methoxy-2-methylindole]
- IC50 [1]: 8 nM
- inhibition in vivo at 10 mg/kg [2]: 24%
- inhibition at 100 µM [3]: 35%

Compound: COc1ccc2c(c1)c(Cc1nc(-c3ccc([N+](=O)[O-])cc3)cs1)c(C)n2Cc1ccc(Br)cc1 [Example 16, 1-(4-bromobenzyl)-5-methoxy-2-methyl-3-[4-(4-nitrophenyl)thiazol-2-ylmethyl]indole]
- IC50 [1]: 7 nM
- inhibition in vivo at 10 mg/kg [2]: 31%
- inhibition at 100 µM [3]: 21%

Compound: COc1ccc2c(c1)c(Cc1nc(-c3ccc(O)c([N+](=O)[O-])c3)cs1)c(C)n2C(=O)c1ccc(Cl)cc1 [Example 11, 1-(4-Chlorobenzoyl)-3-[4-(4-hydroxy-3-nitrophenyl)thiazol-2-ylmethyl]-5-methoxy-2-methylindole]
- inhibition at 0.1 µM [1]: 48%
- inhibition in vivo at 10 mg/kg [2]: 30%
- inhibition at 100 µM [3]: 23%

Compound: COc1ccc2c(c1)c(Cc1nc(-c3ccc([N+](=O)[O-])cc3)cs1)c(C)n2C(=O)c1ccc(Cl)cc1 [Example 6, 1-(4-Chlorobenzoyl)-5-methoxy-2-methyl-3-[4-(4-nitrophenyl)thiazol-2-ylmethyl]indole]
- IC50 [1]: 12 nM
- inhibition at 100 µM [3]: 26%

Compound: COc1ccc2c(c1)c(Cc1nc(-c3ccc(Br)cc3)cs1)c(C)n2C(=O)c1ccc(Cl)cc1 [Example 1, 3-[4-(4-bromophenyl)thiazol-2-ylmethyl]-1-(4-Chlorobenzoyl)-5-methoxy-2-methylindole]
- IC50 [1]: 0.3 nM
- inhibition in vivo at 10 mg/kg [2]: 43%
- inhibition at 100 µM [3]: 32%

Compound: COc1ccc2c(c1)c(Cc1nc(-c3ccc(F)cc3F)cs1)c(C)n2C(=O)c1ccc(Cl)cc1 [Example 2, 1-(4-Chlorobenzoyl)-3-[4-(2.4-difluorophenyl)thiazol-2-ylmethyl]-5-methoxy-2-methylindole]
- inhibition at 0.1 µM [1]: 82%
- inhibition in vivo at 10 mg/kg [2]: 16%
- inhibition at 100 µM [3]: 20%

Compound: COc1ccc2c(c1)c(Cc1csc(-c3cccnc3)n1)c(C)n2C(=O)c1ccc(Cl)cc1 [Example 12, 1-(4-Chlorobenzoyl)-5-methoxy-2-methyl-3-[2-(3-pyridyl)thiazol-4-ylmethyl]indole]
- IC50 [1]: 20 nM
- inhibition at 100 µM [3]: 40%
